Test results as given in patent US7875607B2, “7,8-bicycloakyl-chroman derivatives” (Ampere Life Sciences, Inc., priority 2004, dated 2011).

Columns and labels:
Assay type in all cases: cell-based
[1] = tested on: ELAM (E-selectin) expression in endothelial cells; experiment: Cell-ELAM assay; conditions: 10 μg/ml LPS and 100 pg/ml IL-1β, 6 hours
Description: In vitro cell-based assays for inflammation are well known in the art, for example e-selectin (also named Endothelial Leukocyte Adhesion Molecule or ELAM) or C-reactive protein (CRP). The ELAM assay measures in vitro activity of the test compounds in reducing expression of ELAM in activated endothelial cells. Briefly, endothelial cells are […] by adding known activators such as lipopolysaccharides, TNF or IL-1, alone or in some combination. Activated cells produce ELAM, which can be measured using, for example, an E-selectin monoclonal antibody-based ELISA assay. Similarly the CRP assay measures in vitro activity of test compounds in reducing expression of CRP in Human Hep3B epithelial cells. The activated cells produce CRP, which can be measured with a CRP ELISA assay.
Endothelial-Leukocyte Adhesion Molecule (ELAM), also known as E-selectin, was expressed on the surface of endothelial cells. In this assay, lipopolysaccharide (LPS) and IL-1β were used to stimulate the expression of ELAM; test agents were tested for their abilities to reduce this expression, in accordance with studies showing that reduction of leukocyte adhesion to endothelial cell surface was associated with decreased cellular damage (e.g., Takada, M., Et al., Transplantation 64: 1520-25, 1997; Steinberg, J. B., et al., J. Heart Lung Trans. 13:306-313, 1994).
Endothelial cells may be selected from any of a number of sources and cultured according to methods known in the art; including, for example, coronary artery endothelial cells, human brain microvascular endothelial cells (HBMEC; Hess, D. C., et al., Neurosci. Lett. 213(1): 37-40, 1996), or lung endothelial cells. Cells were conveniently cultured in 96-well plates. Cells were stimulated by adding a solution to each well containing 10 μg/ml LPS and 100 pg/ml IL-1β for 6 hours in the presence of test agent (specific concentrations and time may be adjusted depending on the cell type) Treatment buffer was removed and replaced with pre-warmed Fixing Solution® (100 μl/well) for 25 minutes at room temperature. Cells were then washed 3×, then incubated with Blocking Buffer (PBS+2% FBS) for 25 minutes at room temperature. Blocking Buffer containing Monoclonal E-Selectin Antibody (1:750, Sigma Catalog # S-9555) was added to each well. Plates were sealed and stored at 4° overnight. Plates were washed 4× with 160 μL Blocking Buffer per well. Second Antibody-HRP diluted 1:5000 in Blocking Buffer was then added (100 μL/well), and plates were incubated at room temperature (protected from light) for two hours. Plates were then washed 4× with Blocking Buffer before addition of 100 μL of ABTS Substrate solution at room temperature (Zymed, Catalog # 00-2024). Wells were allowed to develop for 35 minutes, before measurement at 402 nm in a Fluoroskan® Reader with shake program for 10 seconds. Positive results were recorded as a decrease in ELAM concentration in tested wells, as compared to control wells.

[2] = tested on: LTB4 release from MPRO cell line; experiment: LTB4-cell assay; conditions: Mus musculus; differentiated MPRO cells, 1 μM A23187, 1 hour; read-out: EC50, inhibition of LTB4
Procedure, shortened: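 Mouse MPRO cells differentiated 72 hours with 10 μM all-trans retinoic acid, then stimulated 1 hour at 37° C with 1 μM A23187 plus compound (5 concentrations from 10 μM, quadruplicate). Supernatant LTB4 measured by competitive EIA; unstimulated cells as negative control.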

[3] = tested on: dopaminergic neuronal cell line; experiment: High glutamate-induced oxidative stress assay (HGOS); conditions: Mus musculus; 30 mM glutamate, 16 hrs; read-out: EC50, protection against HGOS cell injury and cell death
Procedure, shortened: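 Mouse dopaminergic cells (passage ≤ p11) were grown 72 h at 33 °C, washed in HBSS, then exposed 16 h at 37 °C to compounds in DMEM-No Glu with 1 mM glucose and 30 mM glutamate. Surviving cells were stained 30 min with 5 μM Cell Tracker Green and fluorescence read at 485/538 nm.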

| Structure (SMILES) | EC50 [1] | EC50 [2] | EC50 [3] |
| --- | --- | --- | --- |
| CC1(C)CCc2cc(O)c3c(c2O1)C1CCC3CC1 [2,2-Dimethyl-3,4,7,8,9,10-hexahydro-7,10-ethano-2H-benzo[h]chromen-6-ol] | ≤ 30 µM | ≤ 5 µM |  |
| CC(C)=CCc1c(O)c2c(c3c1CCC(C)(C)O3)C1CCC2C1 (centres unmarked) [2,2-Dimethyl-5-(3-methyl-but-2-enyl)-3,4,7,8,9,10-hexahydro-7,10-methano-2H-benzo[h]chromen-6-ol] | ≤ 30 µM |  | ≤ 1 µM |
| CC(C)CCc1c(O)c2c(c3c1CCC(C)(C)O3)C1CCC2C1 (centres unmarked) [2,2-Dimethyl-5-(3-methyl-butyl)-3,4,7,8,9,10-hexahydro-7,10-methano-2H-benzo[h]chromen-6-ol] | ≤ 30 µM |  | ≤ 1 µM |
| CC1(C)C=Cc2cc(O)c3c(c2O1)C1CCC3CC1 [2,2-Dimethyl-7,8,9,10-tetrahydro-7,10-ethano-2H-benzo[h]chromen-6-ol] |  | ≤ 5 µM | ≤ 1 µM |
| CC1(CCCCl)CCc2cc(O)c3c(c2O1)C1CCC3C1 (centres unmarked) [2-(3-Chloro-propyl)-2-methyl-3,4,7,8,9,10-hexahydro-7,10-methano-2H-benzo[h]chromen-6-ol] | ≤ 30 µM | ≤ 5 µM | ≤ 1 µM |
| CC(C)CSCCCC1(C)CCc2cc(O)c3c(c2O1)C1CCC3C1 (centres unmarked) [2-(3-isobutylsulfanyl-propyl)-2-methyl-3,4,7,8,9,10-hexahydro-7,10-methano-2H-benzo[h]chromen-6-ol] | ≤ 30 µM | ≤ 5 µM | ≤ 1 µM |
| CC1(CCCSc2nccs2)CCc2cc(O)c3c(c2O1)C1CCC3C1 (centres unmarked) [2-Methyl-2-[3-(thiazol-2-ylsulfanyl)-propyl]-3,4,7,8,9,10-hexahydro-7,10-methano-2H-benzo[h]chromen-6-ol] | ≤ 30 µM | ≤ 5 µM | ≤ 1 µM |
